PMC8815882, “Screening the pandemic response box identified benzimidazole carbamates, Olorofim and ravuconazole as promising drug candidates for the treatment of eumycetoma” (PLoS Neglected Tropical Diseases, 2022)
Where two headings read alike, the source gives them in different places.

Assays:
M. mycetomatis MM55 = assay: IC50 determination, 2-fold dilution series 16 to 0.03125 μM; format: cell-based, Madurella mycetomatis; settings: for IC50 / IC90: Madurella mycetomatis
[1] = system: M. mycetomatis genome strain MM55; assay: CLSI M38-A2 based in vitro susceptibility screening (XTT or resazurin), growth at fixed concentration; format: cell-based, Madurella mycetomatis; settings: Madurella mycetomatis; for Percent fungal survival at 100 µM: replicate 2, read-out: Percentage survival at 100um, 100 uM A (second replicate column)
[2] = MM55, Table 3, benzimidazole carbamates, M. mycetomatis, read-out: IC50
[3] = 25 uM, mean of replicates, MM55, read-out: Percentage survival at 25um, 25 uM mean
[4] = 25 uM, replicate A, MM55, read-out: Percentage survival at 25um, 25 um A
[5] = 25 uM, replicate B, MM55, read-out: Percentage survival at 25um, 25 uM B
[6] = 25 uM, replicate C, MM55, read-out: Percentage survival at 25um, 25 uM C
[7] = mean of replicates, MM55, read-out: Percentage survival at 100um, 100 uM mean
[8] = replicate 1, MM55, read-out: Percentage survival at 100um, 100 uM A
[9] = replicate 2, MM55, read-out: Percentage survival at 100um, 100 uM A
[10] = replicate 3, MM55, read-out: Percentage survival at 100um, 100 uM A
[11] = 25 uM, mean, read-out: Percentage survival at 25um, 25 uM mean
[12] = 25 uM, replicate A, read-out: Percentage survival at 25um, 25 um A
[13] = 25 uM, replicate B, read-out: Percentage survival at 25um, 25 uM B
[14] = 25 uM, replicate C, read-out: Percentage survival at 25um, 25 uM C
[15] = mean, read-out: Percentage survival at 100um, 100 uM mean
[16] = replicate (first column), read-out: Percentage survival at 100um, 100 uM A
[17] = replicate (second column), read-out: Percentage survival at 100um, 100 uM A
[18] = replicate (third column), read-out: Percentage survival at 100um, 100 uM A
[19] = 25 uM, mean of three replicates, read-out: Percentage survival at 25um, 25 uM mean
[20] = mean of three replicates, read-out: Percentage survival at 100um, 100 uM mean
[21] = replicate 1, read-out: Percentage survival at 100um, 100 uM A (first replicate column)
[22] = replicate 3, read-out: Percentage survival at 100um, 100 uM A (third replicate column)

`CCCOc1ccc2nc(NC(=O)OC)[nH]c2c1` [MMV002163, Oxibendazole, reference compound] gave an IC50 (M. mycetomatis MM55; [2]) of 69.1 µM.

In the case of `COc1cc(NS(=O)(=O)c2ccc(C)cc2)c2ncccc2c1` [MMV098836], the “Drug static or cidal” value (M. mycetomatis MM55) is reported as “Static”, the IC50 (M. mycetomatis MM55; MM55, mean of replicates, read-out: IC50 mean) is reported as > 25 µM and the IC90 (M. mycetomatis MM55; MM55, IC90, mean of replicates, read-out: IC90 mean) is reported as > 25 µM. For the same compound, the IC90 (M. mycetomatis MM55; MM55, IC90, replicate 1, read-out: IC90 1 um) was > 25 µM, the IC90 (M. mycetomatis MM55; MM55, IC90, replicate 2, read-out: IC90 2 um) was > 25 µM and the IC90 (M. mycetomatis MM55; MM55, IC90, replicate 3, read-out: IC90 3 um) was > 25 µM. For the same compound, the IC50 (M. mycetomatis MM55; MM55, replicate 1, read-out: IC50 1 um) was > 25 µM, the IC50 (M. mycetomatis MM55; MM55, replicate 2, read-out: IC50 2 um) was > 25 µM and the IC50 (M. mycetomatis MM55; MM55, replicate 3, read-out: IC50 3 um) was > 25 µM. The activity at 25 µM [1, 3] was 6.7%, the activity at 25 µM [1, 4] was 6.32% and the activity at 25 µM [1, 5] was -0.482%. It also gave an activity at 25 µM [1, 6] of 14.3%, an activity at 100 µM [1, 7] of 6.45% and an activity at 100 µM [1, 8] of 4.22%. For the same compound, the activity at 100 µM [1, 9] was 0.942% and the activity at 100 µM [1, 10] was 14.2%.

`CCCCOC(=O)Nc1cc2nc(C3CCCCC3)[nH]c2cc1N1CCCC1` [MMV687730] gave an IC50 (M. mycetomatis MM55; [2]) of 11.6 µM.

`Nc1nc2c(Cc3cccnc3)c[nH]c2c(=O)[nH]1` [MMV1782355] showed an activity at 25 µM [1, 4] of 97.7%, an activity at 100 µM [1, 7] of 88.4% and an activity at 100 µM [1, 8] of 88.7%. For the same compound, the activity at 100 µM [1, 9] was 105%, the activity at 100 µM [1, 10] was 71.4% and the activity at 25 µM ([1]; read-out: Percentage survival at 25um, 25 uM B) was 95.7%. It also gave an activity at 25 µM ([1]; read-out: Percentage survival at 25um, 25 uM C) of 78.5% and an activity at 25 µM ([1]; read-out: Percentage survival at 25um, 25 uM mean) of 90.6%.

`CN(O)C(=O)c1cc2c(CN3CCC[C@H]3C(N)=O)cn(Cc3ccc(F)cc3)c2cn1` [MMV1782386] was tested, and the activity at 25 µM [1, 3] was 91.7%, the activity at 25 µM [1, 4] was 95% and the activity at 25 µM [1, 5] was 96.1%. For the same compound, the activity at 25 µM [1, 6] was 84%, the activity at 100 µM [1, 7] was 86% and the activity at 100 µM [1, 8] was 87.4%. It also gave an activity at 100 µM [1, 9] of 91.4% and an activity at 100 µM [1, 10] of 79.3%.

With `CNc1nc(=O)[nH]cc1F` [MMV1782388] the activity at 25 µM [1, 11] was 81.1%, the activity at 25 µM [1, 12] was 88.9% and the activity at 25 µM [1, 13] was 76.2%. It also gave an activity at 25 µM [1, 14] of 78.1%, an activity at 100 µM [1, 15] of 93.4% and an activity at 100 µM [1, 16] of 99.3%. It also gave an activity at 100 µM [1, 17] of 85.3% and an activity at 100 µM [1, 18] of 95.6%.

For `Cc1cc(C)n(O)c(=O)c1` [MMV1782389], the activity at 25 µM [1, 11] was 81.5%, the activity at 25 µM [1, 12] was 87.4% and the activity at 25 µM [1, 13] was 82.9%. The activity at 25 µM [1, 14] was 74.1%, the activity at 100 µM [1, 15] was 81.6% and the activity at 100 µM [1, 16] was 67.6%. For the same compound, the activity at 100 µM [1, 17] was 78.2% and the activity at 100 µM [1, 18] was 99.1%.

For `Cc1cc(C)n2nc(C(=O)NS(=O)(=O)c3c(C)cccc3OC(F)(F)F)nc2n1` [MMV1782402], the activity at 25 µM [1, 19] was 96.1%, the activity at 25 µM [1, 12] was 98.2% and the activity at 25 µM [1, 13] was 98.8%. The activity at 25 µM [1, 14] was 91.3%, the activity at 100 µM [1, 20] was 91.2% and the activity at 100 µM [1, 21] was 99%. For the same compound, the Percent fungal survival at 100 µM [1] was 92.6% and the activity at 100 µM [1, 22] was 82%.

`CCNC(=O)Nc1cn2c(-c3ncc(CC)cn3)cc(-c3cccnc3)cc2n1` [MMV1782403] gave an activity at 25 µM [1, 19] of 109%, an activity at 25 µM [1, 12] of 109% and an activity at 25 µM [1, 13] of 132%. The activity at 25 µM [1, 14] was 85.2%, the activity at 100 µM [1, 20] was 84.3% and the activity at 100 µM [1, 21] was 77.2%. For the same compound, the Percent fungal survival at 100 µM [1] was 79.4% and the activity at 100 µM [1, 22] was 96.3%.

`O=S(=O)(NCB(O)O)c1ccc(-c2nnn[nH]2)cc1C(F)(F)F` [MMV1782411] gave an activity at 25 µM [1, 19] of 83.9%, an activity at 25 µM [1, 12] of 61.4% and an activity at 25 µM [1, 13] of 112%. The activity at 25 µM [1, 14] was 78.7%, the activity at 100 µM [1, 20] was 88.5% and the activity at 100 µM [1, 21] was 91.5%. The Percent fungal survival at 100 µM [1] was 83.7% and the activity at 100 µM [1, 22] was 90.2%.

With `NC(=O)C(c1ccccc1)(c1ccccc1)[C@H]1CCCN(CCc2ccc3c(c2)CCO3)C1` [MMV1782412] the activity at 25 µM [1, 3] was 101%, the activity at 25 µM [1, 4] was 130% and the activity at 25 µM [1, 5] was 101%. It also gave an activity at 25 µM [1, 6] of 70.7%, an activity at 100 µM [1, 7] of 68.7% and an activity at 100 µM [1, 8] of 67.1%. It also gave an activity at 100 µM [1, 9] of 68% and an activity at 100 µM [1, 10] of 71%.
